1 molecule from publication PMC4556985, “Inhibitors of ORAI1 Prevent Cytosolic Calcium-Associated Injury of Human Pancreatic Acinar Cells and Acute Pancreatitis in 3 Mouse Models” (Gastroenterology, 2015) can be followed below.

SMILES strings stand for the structures.

This assay deals with T1, ORAI1 (Homo sapiens, UniProt Q96D31).
T1 construct: with STIM1 (human, co-expressed)
Briefly: whole-cell patch clamp of ICRAC in HEK […] cells stably expressing hORAI1/hSTIM1. The assay is classed as cell-based. (The patch-clamp technique gives a direct electrical read-out from membranes.)

T1 sequence (Q96D31 whole entry): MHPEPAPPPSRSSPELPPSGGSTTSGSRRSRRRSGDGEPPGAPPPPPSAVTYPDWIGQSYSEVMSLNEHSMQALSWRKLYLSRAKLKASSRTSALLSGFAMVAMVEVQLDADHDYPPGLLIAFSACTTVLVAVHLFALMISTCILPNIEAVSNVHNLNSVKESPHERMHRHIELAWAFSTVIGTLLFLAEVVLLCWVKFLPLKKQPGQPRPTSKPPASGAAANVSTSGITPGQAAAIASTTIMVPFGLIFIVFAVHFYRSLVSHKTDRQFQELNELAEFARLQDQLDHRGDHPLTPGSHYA
T1 sequence (Q13586 23-685 partner): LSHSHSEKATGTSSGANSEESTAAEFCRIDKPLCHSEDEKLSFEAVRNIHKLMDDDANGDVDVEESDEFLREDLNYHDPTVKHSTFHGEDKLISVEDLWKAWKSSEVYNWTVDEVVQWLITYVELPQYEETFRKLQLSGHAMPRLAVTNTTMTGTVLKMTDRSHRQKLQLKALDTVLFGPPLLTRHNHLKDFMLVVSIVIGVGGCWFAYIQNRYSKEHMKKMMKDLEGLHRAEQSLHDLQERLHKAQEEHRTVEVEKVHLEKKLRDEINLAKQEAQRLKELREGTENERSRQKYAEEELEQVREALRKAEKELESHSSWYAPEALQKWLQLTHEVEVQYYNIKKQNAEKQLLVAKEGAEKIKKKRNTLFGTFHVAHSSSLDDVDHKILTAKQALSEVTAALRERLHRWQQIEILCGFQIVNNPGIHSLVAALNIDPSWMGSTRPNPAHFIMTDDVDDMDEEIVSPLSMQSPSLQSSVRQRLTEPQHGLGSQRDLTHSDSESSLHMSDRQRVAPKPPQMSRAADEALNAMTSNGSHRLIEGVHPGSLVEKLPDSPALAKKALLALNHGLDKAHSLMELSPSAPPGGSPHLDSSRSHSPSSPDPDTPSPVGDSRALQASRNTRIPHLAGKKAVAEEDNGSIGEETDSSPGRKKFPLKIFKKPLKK

`Cc1cccc(F)c1C(=O)Nc1cnc(-c2cc3c(cc2Cl)OC(F)(F)O3)cn1` [CM_128]: the concentration for half-maximal inhibition (IC50) (in general, the concentration that gives 50% inhibition) is roughly 100 nM.
